In PubChem BioAssay (NCI):
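Tested at 5 concentrations; 48 h exposure; 96-well plates; endpoints linearly interpolated, else capped at highest concentration. GI50: concentration for 50% inhibition of growth. TGI denotes the concentration required for complete inhibition of growth.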

Assays:
Assay in all cases: NCI anticancer screen, dose series, 48 h
SF-539 CNS = test system: SF-539 CNS
M14 melanoma = test system: M14 melanoma
EKVX NSCLC = test system: EKVX NSCLC
CAKI-1 renal = test system: CAKI-1 renal
SF-295 CNS = test system: SF-295 CNS
SNB-19 CNS = test system: SNB-19 CNS
HT29 colon = test system: HT29 colon
T-47D breast = test system: T-47D breast
NCI-H522 lung = test system: NCI-H522 lung
NCI/ADR-RES ovarian = test system: NCI/ADR-RES ovarian

| SMILES | TGI (SF-539 CNS) | TGI (M14 melanoma) | TGI (EKVX NSCLC) | TGI (CAKI-1 renal) | TGI (SF-295 CNS) | TGI (SNB-19 CNS) | TGI (HT29 colon) | TGI (T-47D breast) | TGI (NCI-H522 lung) | GI50 (NCI/ADR-RES ovarian) | TGI (NCI/ADR-RES ovarian) | GI50 (SF-539 CNS) | GI50 (M14 melanoma) | GI50 (EKVX NSCLC) | GI50 (CAKI-1 renal) | GI50 (SF-295 CNS) | GI50 (SNB-19 CNS) | GI50 (HT29 colon) | GI50 (NCI-H522 lung) |
| --- | --- | --- | --- | --- | --- | --- | --- | --- | --- | --- | --- | --- | --- | --- | --- | --- | --- | --- | --- |
| O=C(CC1(O)C(=O)Nc2c(Cl)ccc(Cl)c21)c1ccc(Cl)cc1 (stereo unspecified) | 50.6 µM | 69.1 µM | > 100 µM | > 100 µM | 83.4 µM | > 100 µM | 73.2 µM |  |  |  |  |  |  |  |  |  |  |  |  |
| O=C1c2ccccc2N1C(=O)c1ccccc1[N+](=O)[O-] | > 100 µM | > 100 µM | > 100 µM | > 100 µM |  | > 100 µM | > 100 µM | > 100 µM | > 100 µM |  |  |  |  |  |  |  |  |  |  |
| COC(=O)C1CC(=O)O[C@H]1c1ccc(OC)c(OC)c1 (stereo partly specified) | > 100 µM | > 100 µM | > 100 µM | > 100 µM | > 100 µM |  | > 100 µM |  |  |  |  |  |  |  |  |  |  |  |  |
| O=C1c2ccccc2C2(O)N(c3ccccc3)C(=S)N(c3ccccc3)C12O (stereo unspecified) | > 100 µM | > 100 µM | > 100 µM | > 100 µM | > 100 µM | > 100 µM | > 100 µM |  | > 100 µM |  |  |  |  |  |  |  |  |  |  |
| COc1cc2c(cc1OCCN1CCN(CCN3C(=O)c4cccc5cccc(c45)C3=O)CC1)N=C[C@@H]1CCCN1C2=O | 45.6 µM | 28.7 µM | 45.7 µM | 30.2 µM | 41.1 µM | 53.7 µM | 43.9 µM |  | 34.8 µM | 11.9 µM | 28.2 µM | 20.8 µM | 14.5 µM | 21.1 µM | 13.6 µM | 22.9 µM | 29.9 µM | 22.6 µM | 18.8 µM |
| COc1ccc(C(C)Nc2cc(OC)c(OC)c(OC)c2)cc1 (stereo unspecified) | 12.8 µM | > 100 µM | > 100 µM | > 100 µM | 7.53 µM | > 100 µM | > 100 µM |  | 17.6 µM |  |  |  |  |  |  |  |  |  |  |
| CN(C)c1ccc(/C=C2\CCc3ccccc3C2=O)cc1Br | > 100 µM | > 100 µM | > 100 µM | > 100 µM | > 100 µM | > 100 µM | > 100 µM |  | > 100 µM |  |  |  |  |  |  |  |  |  |  |
| CC(=O)NC(CCCNC(=O)OCc1ccccc1)C(=O)NCc1ccccc1 (stereo unspecified) | > 100 µM | > 100 µM | > 100 µM | > 100 µM | > 100 µM | > 100 µM | > 100 µM |  | > 100 µM |  |  |  |  |  |  |  |  |  |  |
| N#CC1(CCCCl)CCCCC1 | > 100 µM | > 100 µM | > 100 µM |  | > 100 µM | > 100 µM | > 100 µM |  | > 100 µM |  |  |  |  |  |  |  |  |  |  |
| CC(C)CCCC(C)C1CCC2C3CC([N+](=O)[O-])=C4CC(O)CCC4(C)C3CCC12C (stereo unspecified) | 28.9 µM | 28.8 µM | 57.2 µM | 66 µM | 30 µM |  | 55.5 µM |  | 33.6 µM |  |  |  |  |  |  |  |  |  |  |
| Cc1ccccc1NC(=O)CC(=O)NNCC(=O)Nc1nnc(-c2ccccc2)s1 | > 100 µM | > 100 µM | > 100 µM | > 100 µM | > 100 µM | > 100 µM | > 100 µM |  | > 100 µM |  |  |  |  |  |  |  |  |  |  |
| COC(=O)N/N=C(\C)c1sc(-c2nc(C)c(/C(C)=N/NC(=O)OC)s2)nc1C | > 100 µM | > 100 µM | > 100 µM | > 100 µM | > 100 µM | > 100 µM | > 100 µM |  | > 100 µM |  |  |  |  |  |  |  |  |  |  |
| COc1ccc([C@@H]2[C@@H](Oc3ccccc3)C(=O)N2c2cc(OC)c(OC)c(OC)c2)cc1F | 0.709 µM | 1.72 µM | > 100 µM |  | > 100 µM | > 100 µM | 0.684 µM |  | 0.332 µM | 0.0949 µM | > 100 µM | 0.0735 µM | 0.0818 µM | 0.465 µM |  | 0.0785 µM | 0.175 µM | 0.211 µM | 0.0276 µM |
| CCOC(=O)C1C(NC(N)=O)N(Cc2ccccc2)C(=O)N1Cc1ccccc1 (stereo unspecified) | > 100 µM | > 100 µM | > 100 µM | > 100 µM | > 100 µM | > 100 µM | > 100 µM |  | > 100 µM |  |  |  |  |  |  |  |  |  |  |
| O=[N+]([O-])c1ccc(/C=C/c2ccc(/C=C/c3ccc([N+](=O)[O-])cc3[N+](=O)[O-])cc2)c([N+](=O)[O-])c1 | > 100 µM | > 100 µM | > 100 µM | > 100 µM | > 100 µM |  | > 100 µM |  |  |  |  |  |  |  |  |  |  |  |  |
| ON1CCc2c([nH]c3ccccc23)C1c1ccc(Cl)cc1 (stereo unspecified) | > 100 µM | > 100 µM | > 100 µM |  | 91 µM | > 100 µM | 40.1 µM |  | 60 µM |  |  |  |  |  |  |  |  |  |  |
| C/C(=C\c1ccccc1)C(O)C(=O)c1nc2ccc(Cl)cc2[nH]c1=O (stereo unspecified) | > 100 µM | > 100 µM | > 100 µM | > 100 µM | > 100 µM | > 100 µM | > 100 µM |  | > 100 µM |  |  |  |  |  |  |  |  |  |  |
